In patent US20260294867A1, “METHODS FOR WEIGHT LOSS AND/OR REDUCING WEIGHT GAIN” (The Medical College of Wisconsin, Inc., priority 2023, published 2026):

Tests used:
Format in all cases: in vivo, C57BL/6J diet-induced obesity (DIO) male mice
[1] = Example 1: eating behavior, calories ingested per day; conditions: 2-way ANOVA of FIG. 4A; reutericyclin 100 μg/kg gavage, semaglutide 1 nmole/kg/day IP
Source text: (§1) FIG. 1 depicts the experimental approach for this Example. C57BL/6J diet-induced obesity (DIO) male mice were obtained at 12 weeks of age and housed singly in the MCW animal facility (www.jax.org/jax-mice-and-services/strain-data-sheet-pages/phenotype-information-380050). Mice were maintained on a 60% high fat diet (HFD) (Research Diets D12492) throughout the experiment. Mice were acclimated for 2 weeks prior to treatment with either semaglutide, reutericyclin, both drugs, or neither drug.
(§2) Mice were weight-matched into 4 groups (N=10 per group) and given either reutericyclin via gavage to achieve a dosage of 100 μg/kg or injected intraperitoneally (IP) with semaglutide to administer 1 nmole/kg/day. All mice experienced both gavage and injection with either drug or vehicle. Vehicle for reutericyclin and semaglute are identical: 3.0% DMSO in phosphate buffered saline (PBS).
(§3) The four groups were: the control group (HFD-PBS), which received vehicle only; the HFD-RTC group, which were administered reutericyclin at a dose of 100 μg/kg of body weight in PBS; the HFD-RTC-SemaG group, which received reutericyclin at a dose of 100 μg/kg of body weight and 1 nanomole of semaglutide/kg of body weight in vehicle; and the HFD-SemaG group, which were administered 1 nanomole of semaglutide/kg of body weight in vehicle. […]

[2] = Example 1: fasted blood glucose; conditions: 2-way ANOVA of FIG. 4B; reutericyclin 100 μg/kg gavage, semaglutide 1 nmole/kg/day IP
Source text: as §1, §2, §3

[3] = Example 2: change in body mass on day 26; conditions: 2-way ANOVA
Source text: (§4) FIG. 5 depicts the experimental approach for this Example, and additional details can be found in Tables 3 and 4 below. C57BL/6J diet-induced obesity (DIO) male mice were obtained at 12 weeks of age and housed singly in the MCW animal facility (https://www.jax.org/jax-mice-and-services/strain-data-sheet-pages/phenotype-information-380050). Mice were maintained on a 60% high fat diet (Research Diets D12492) throughout the experiment. Mice were acclimated for 2 weeks prior to treatment with either semaglutide, reutericyclin (RTC), both drugs, or neither drug.
as §2, with “(PBS). […]” for “(PBS).”
(§5) Mice were weighed daily to assess changes in body mass. […] Feeding efficiency is calculated by measuring the amount of weight gained by each mouse per gram of food consumed over a period of 5 days. Feeding efficiency shown here was calculated over days 21-26. […]

[4] = Example 2: change in weight at day 46 after withdrawal of the semaglutide; conditions: 2-way ANOVA
Source text: as §4
as §2, with “(PBS). […]” for “(PBS).”
as §5

[5] = Example 2: feeding efficiency; conditions: 2-way ANOVA, days 21-26
Source text: as §4
as §2, with “(PBS). […]” for “(PBS).”
as §5

[6] = Example 2: fasted blood glucose at day 27; conditions: 4 hours without food
Source text: as §4, §2
The four groups of mice were as follows: Group 1 (black) (HFD-PBS) received no drug but experienced gavage and injection; Group 2 (red) (HFD-RTC) received reutericyclin via gavage and experienced injection with vehicle only; Group 3 (green) (HFD-SemaG) received no drug via gavage and experienced injection with semaglutide; and Group 4 (purple) (HFD-RTC-SemaG) received reutericyclin via gavage and experienced injection with semaglutide.
Fasted blood glucose (4 hours without food) was performed with standard glucose test strips. Blood was obtained by a tail prick on day 27 of the experiment.
For each 2-way ANOVA statistical analyses, injection refers to semaglutide, gavage refers to reutericyclin, and interaction refers to the combination of injection and gavage.
FIG. 9 is a bar graph depicting the fasted blood glucose level at day 27 as described in Example 2.

CCCCCCC/C=C/C(=O)N1C(=O)C(C(C)=O)=C(O)[C@H]1CC(C)C [reutericyclin, (5R)-1-(2-decenoyl)-2-hydroxy-3-acetyl-5-isobutyl-42-pyrroline-4-one]
effect on eating (calories ingested per day) [1]: no noted effect
effect on fasting blood glucose [2]: no noted effect
Significant?, change in body mass [3]: Yes
% of total variation, change in body mass ([3]; gavage = reutericyclin 100 μg/kg, injection = semaglutide 1 nmole/kg/day IP, interaction = combination): 7.893%
Significant?, change in weight after withdrawal of the semaglutide ([4]; semaglutide stopped at day 26): Yes
% of total variation, change in weight after withdrawal of the semaglutide ([4]; semaglutide stopped at day 26, gavage = reutericyclin, injection = semaglutide, interaction = combination): 5.422%
Significant?, feeding efficiency [5]: Yes
% of total variation, feeding efficiency ([5]; weight gained per gram of food consumed, gavage = reutericyclin, injection = semaglutide, interaction = combination): 8.034%
Significant?, fasted blood glucose level ([6]; 2-way ANOVA): No
% of total variation, fasted blood glucose level ([6]; 2-way ANOVA, gavage = reutericyclin, injection = semaglutide, interaction = combination): 9.241e−005%
effect on blood glucose levels ([6]; tail prick): does not
